Data taken from patent US20080096967A1, “Formulations for Injection of Catecholic Butanes, Including Ndga Compounds, Into Animals” (priority 2005, published 2008).

Experiment: M4N solubility in water miscible organic solvents up to 48 hours (RP-HPLC)
Format: physicochemical
Protocol: To prepare M4N samples, 200 μL of 100 mg/mL M4N dissolved in acetone were placed in 1.5 mL polypropylene microtubes. The solvent was allowed to evaporate at room temperature for 48 hours until the samples were completely dry.
The water miscible organic solvent formulations were prepared in 15 mL polypropylene centrifuge tubes. 10 mL of each formulation was prepared. Each solvent was added on the basis of weight using its respective density at 25° C. Following brief mixing, each formulation was filtered through a 0.45 μm surfactant free cellulose acetate (“SFCA”) filter into a fresh 15 mL tube. Formulations were kept at room temperature until ready for use.
At each time point, the samples were centrifuged for 2 minutes at 13,000 rpm to pellet any solid M4N. As noted in Table 25, over half of the formulation conditions examined were able to solubilize M4N to a concentration of greater than 10 mg/Ml.

Compound COc1ccc(C[C@@H](C)[C@@H](C)Cc2ccc(OC)c(OC)c2)cc1OC [Formulation M4N, meso-1,4-bis(3,4-dimethoxyphenyl)-2,3-dimethylbutane] has an M4N solubility (14% EtOH, 30% PG, 40% Crem, 10% T80, 6% DMA, 2 hrs at room temperature) of 9030 µg/mL, an M4N solubility (14% EtOH, 30% PG, 40% Crem, 10% T80, 6% DMA, 24 hrs at room temperature) of 12080 µg/mL and an M4N solubility (14% EtOH, 30% PG, 40% Crem, 10% T80, 6% DMA, 48 hrs at room temperature) of 12280 µg/mL. It also gave an M4N solubility (14% EtOH, 30% PG, 40% Glyc, 10% T80, 6% DMA, 2 hrs at room temperature) of 850 µg/mL, an M4N solubility (14% EtOH, 30% PG, 40% Glyc, 10% T80, 6% DMA, 24 hrs at room temperature) of 1240 µg/mL and an M4N solubility (14% EtOH, 30% PG, 40% Glyc, 10% T80, 6% DMA, 48 hrs at room temperature) of 1480 µg/mL. It also gave an M4N solubility (14% EtOH, 30% PG, 40% PEG300, 10% T80, 6% DMA, 2 hrs at room temperature) of 9400 µg/mL, an M4N solubility (14% EtOH, 30% PG, 40% PEG300, 10% T80, 6% DMA, 24 hrs at room temperature) of 10550 µg/mL and an M4N solubility (14% EtOH, 30% PG, 40% PEG300, 10% T80, 6% DMA, 48 hrs at room temperature) of 11300 µg/mL. For the same compound, the M4N solubility (18% EtOH, 30% PG, 40% Crem, 10% T80, 2% Benz, 2 hrs at room temperature) was 8640 µg/mL, the M4N solubility (18% EtOH, 30% PG, 40% Crem, 10% T80, 2% Benz, 24 hrs at room temperature) was 11780 µg/mL and the M4N solubility (18% EtOH, 30% PG, 40% Crem, 10% T80, 2% Benz, 48 hrs at room temperature) was 11860 µg/mL. The M4N solubility (18% EtOH, 30% PG, 40% Glyc, 10% T80, 2% Benz, 2 hrs at room temperature) was 580 µg/mL, the M4N solubility (18% EtOH, 30% PG, 40% Glyc, 10% T80, 2% Benz, 24 hrs at room temperature) was 1010 µg/mL and the M4N solubility (18% EtOH, 30% PG, 40% Glyc, 10% T80, 2% Benz, 48 hrs at room temperature) was 1150 µg/mL. For the same compound, the M4N solubility (18% EtOH, 30% PG, 40% PEG300, 10% T80, 2% Benz, 2 hrs at room temperature) was 7840 µg/mL, the M4N solubility (18% EtOH, 30% PG, 40% PEG300, 10% T80, 2% Benz, 24 hrs at room temperature) was 9790 µg/mL and the M4N solubility (18% EtOH, 30% PG, 40% PEG300, 10% T80, 2% Benz, 48 hrs at room temperature) was 10160 µg/mL. For the same compound, the M4N solubility (24% EtOH, 30% PG, 30% Crem, 10% T80, 6% DMA, 2 hrs at room temperature) was 10420 µg/mL, the M4N solubility (24% EtOH, 30% PG, 30% Crem, 10% T80, 6% DMA, 24 hrs at room temperature) was 11250 µg/mL and the M4N solubility (24% EtOH, 30% PG, 30% Crem, 10% T80, 6% DMA, 48 hrs at room temperature) was 12480 µg/mL. It also gave an M4N solubility (24% EtOH, 30% PG, 30% Glyc, 10% T80, 6% DMA, 2 hrs at room temperature) of 1630 µg/mL, an M4N solubility (24% EtOH, 30% PG, 30% Glyc, 10% T80, 6% DMA, 24 hrs at room temperature) of 2260 µg/mL and an M4N solubility (24% EtOH, 30% PG, 30% Glyc, 10% T80, 6% DMA, 48 hrs at room temperature) of 2520 µg/mL. It also gave an M4N solubility (24% EtOH, 30% PG, 30% PEG300, 10% T80, 6% DMA, 2 hrs at room temperature) of 9910 µg/mL, an M4N solubility (24% EtOH, 30% PG, 30% PEG300, 10% T80, 6% DMA, 24 hrs at room temperature) of 10800 µg/mL and an M4N solubility (28% EtOH, 30% PG, 30% Crem, 10% T80, 2% Benz, 2 hrs at room temperature) of 8980 µg/mL. The M4N solubility (28% EtOH, 30% PG, 30% Crem, 10% T80, 2% Benz, 24 hrs at room temperature) was 11350 µg/mL, the M4N solubility (28% EtOH, 30% PG, 30% Crem, 10% T80, 2% Benz, 48 hrs at room temperature) was 11280 µg/mL and the M4N solubility (28% EtOH, 30% PG, 30% Glyc, 10% T80, 2% Benz, 2 hrs at room temperature) was 1860 µg/mL. For the same compound, the M4N solubility (28% EtOH, 30% PG, 30% Glyc, 10% T80, 2% Benz, 24 hrs at room temperature) was 2220 µg/mL, the M4N solubility (28% EtOH, 30% PG, 30% Glyc, 10% T80, 2% Benz, 48 hrs at room temperature) was 2530 µg/mL and the M4N solubility (28% EtOH, 30% PG, 30% PEG300, 10% T80, 2% Benz, 2 hrs at room temperature) was 8870 µg/mL. The M4N solubility (28% EtOH, 30% PG, 30% PEG300, 10% T80, 2% Benz, 24 hrs at room temperature) was 10190 µg/mL, the M4N solubility (28% EtOH, 30% PG, 30% PEG300, 10% T80, 2% Benz, 48 hrs at room temperature) was 10270 µg/mL and the M4N solubility (44% EtOH, 50% Crem, 6% DMA, 2 hrs at room temperature) was 14850 µg/mL. The M4N solubility (44% EtOH, 50% Crem, 6% DMA, 24 hrs at room temperature) was 20420 µg/mL, the M4N solubility (44% EtOH, 50% Crem, 6% DMA, 48 hrs at room temperature) was 21080 µg/mL and the M4N solubility (44% EtOH, 50% Glycerol, 6% DMA, 2 hrs at room temperature) was 1430 µg/mL. The M4N solubility (44% EtOH, 50% Glycerol, 6% DMA, 24 hrs at room temperature) was 1900 µg/mL, the M4N solubility (44% EtOH, 50% Glycerol, 6% DMA, 48 hrs at room temperature) was 2010 µg/mL and the M4N solubility (44% EtOH, 50% PEG300, 6% DMA, 2 hrs at room temperature) was 15120 µg/mL. For the same compound, the M4N solubility (44% EtOH, 50% PEG300, 6% DMA, 24 hrs at room temperature) was 18610 µg/mL, the M4N solubility (44% EtOH, 50% PEG300, 6% DMA, 48 hrs at room temperature) was 18270 µg/mL and the M4N solubility (44% EtOH, 50% PG, 6% DMA, 2 hrs at room temperature) was 4800 µg/mL. For the same compound, the M4N solubility (44% EtOH, 50% PG, 6% DMA, 24 hrs at room temperature) was 5480 µg/mL, the M4N solubility (44% EtOH, 50% PG, 6% DMA, 48 hrs at room temperature) was 2930 µg/mL and the M4N solubility (44% EtOH, 50% T80, 6% DMA, 2 hrs at room temperature) was 17720 µg/mL. The M4N solubility (44% EtOH, 50% T80, 6% DMA, 24 hrs at room temperature) was 22410 µg/mL, the M4N solubility (44% EtOH, 50% T80, 6% DMA, 48 hrs at room temperature) was 23000 µg/mL and the M4N solubility (48% EtOH, 50% Crem, 2% Benz, 2 hrs at room temperature) was 14020 µg/mL. For the same compound, the M4N solubility (48% EtOH, 50% Crem, 2% Benz, 24 hrs at room temperature) was 18170 µg/mL, the M4N solubility (48% EtOH, 50% Crem, 2% Benz, 48 hrs at room temperature) was 18510 µg/mL and the M4N solubility (48% EtOH, 50% Glycerol, 2% Benz, 2 hrs at room temperature) was 1250 µg/mL. It also gave an M4N solubility (48% EtOH, 50% Glycerol, 2% Benz, 24 hrs at room temperature) of 1660 µg/mL and an M4N solubility (48% EtOH, 50% Glycerol, 2% Benz, 48 hrs at room temperature) of 1730 µg/mL.
